Assay results published in US4816463A, “Substituted diimidazo [1,5-a: 4',5'-d]pyridines having antihypertensive activity” (Warner-Lambert Company, priority 1987, dated 1989).

Tests used:
[1] = system: 2 kidney, 1-clip Goldblatt hypertensive rat (RHR); assay: antihypertensive evaluation (AHP3): blood pressure in conscious 2 kidney, 1-clip Goldblatt (renal) hypertensive rats (RHR); format: in vivo; details: 30 mg/kg ip in RHR, read-out: Max % decrease in blood pressure
Source text: The continuous monitoring of pulsatile blood pressure (BP) from unrestrained conscious rats surgically equipped with polyethylene cannulas was accomplished by means of a computer assisted data capture scheme (CADCS). The basic elements of the methodology are the cannulation procedure and the CADCS.
Cannulas fabricated from polyethylene tubing were inserted into the aorta via an undersized puncture hole below the renal arteries. The puncture hole was made by a 23 G disposable needle with a section of the aorta clamped off above and below the puncture site. The cannulas, consisting of a PE100 (0.86 mm ID) body and a PE50 (0.58 mm ID) tip, were attached to a trocar, inserted through the psoas muscle, and passed subcutaneously along the midline of the back and externalized between the ears. The cannulas were anchored to the psoas muscle and between the scalulae (3-0 green braided suture). […] Each rat was then given penicillin 30,000 units subcutaneously (Penicillin G Procaine Sterile Suspension).
The rats were fitted with a harness-spring-swivel assembly designed to protect the cannula and to provide the rat relative freedom of movement. The harnesses were fabricated from nylon hook and loop tape cemented to a metal plate to which spring wires (18-8 stainless steel), were attached to brass swivels. […]

[2] = target: rat adrenal receptor preparations (angiotensin II binding); assay: inhibition of 125I-angiotensin II binding to rat adrenal receptor preparations; details: read-out: IC50 (μM) for inhibition of 125I angiotensin II binding to rat adrenal receptor preparations
[3] = system: spontaneously hypertensive rat (SHR); assay: antihypertensive evaluation (AHP3): blood pressure in conscious spontaneously hypertensive rats (SHR); format: in vivo; details: 30 mg/kg PO in SHR, read-out: Max % decrease in blood pressure
Method: Thus, for example, compounds of formula I when administered intrapertoneally or orally to 2 kidney, 1-clip Goldblatt (renal) hypertensive rats (See S. Sen, et al., "Role of Renin-Anfgiotensin System in Chronic Renal Hypertensive Rats," Hypertension 1: 427-4343 (1979) and Clin. Soc. 57: 53-62, 1979, "Antihypertensive Effect of Prolonged Blockade of Angiotensin Formation in Benign and Malignant, one- and two-kidney Goldblatt Hypertensive Rats".) at doses in the range of 1-100 mg/kg cause 10-80 mmHg drops in blood pressure. […] Angiotensin binding inhibition activity and blood pressure lowering activity in renal hypertensive rats of the optimally substituted examples of formula I are listed in Table 1. Blood pressure lowering activity in spontaneously hypertensive rats of optimally substituted examples of formula II are listed in Table 2. […]
CADCS: The pulsatile blood pressure of each of 32 rats was monitored continuously by two signal conditioning units (Gould, Cleve., Ohio). The signals from these units were monitored and digital data for mean, systolic, and diastolic blood pressures as well as for heart rate were calculated every 5 min by two in-laboratory computers (Hewlett Packard, Cupertino, Ca.). […]

Row | Compound | change in vivo at 30 mg/kg [1] | IC50 [2] | change in vivo at 30 mg/kg [3]
1 | O=C(O)C1Cc2c(ncn2Cc2ccccc2)CN1C(=O)C1c2ccccc2-c2ccccc21 (racemic) [Example 29, 1H-Imidazo[4,5-c]pyridine-6-carboxylic acid, 5-[(9H-fluoren-9-yl)carbonyl]-4,5,6,7-tetrahydro-1-(phenylmethyl)-, (±)-] | -22% | 8 µM | –
2 | CSc1ccc(N2C(=O)C3Cc4[nH]cnc4CN3C2=O)cc1 (stereo not drawn) [Example 158, 8a,9-Dihydro-7-[4-(methylthio)phenyl]-1H-diimidazo[1,5-a:4',5'-d]pyridine-6,8(4H,7H)-dione] | – | – | -17%
